In patent US9969749B2, “Inhibitors of IRAK4 activity” (MERCK SHARP & DOHME CORP., priority 2014, dated 2018):

Target: IRAK4 (Homo sapiens (Human), UniProt Q9NWZ3)
Assay: IRAK4 Kinase Assay (IMAP fluorescence polarization)
Assay type: biochemical
Settings: 0.5 nM GST tagged IRAK4, 100 μM ATP, 100 nM fluorescent peptide substrate RP7030, 30 minutes at 25° C.
Protocol: The kinase activity of IRAK4 is determined by its ability to catalyze the phosphorylation of a fluorescent polypeptide substrate. The extent of phosphorylation is measured using the IMAP technology (Molecular Devices) where the phosphorylated fluorescent substrate binds to the large M(III)-based nanoparticles which reduces the rotational speed of the substrate and thus increases its fluorescent polarization (FP).
20 μL reaction mixture contains 10 mM TriHCl, pH 7.2, 0.5 nM GST tagged IRAK4 (SignalChem), 100 nM fluorescent peptide substrate (RP7030, Molecular Devices), 100 μM ATP, 1 mM DDT, 1 mM MgCl2, and 0.01% Tween 20. The reaction is initiated by the addition of ATP. After incubation for 30 minutes at 25° C., 60 μL of Progressive IMAP Reagent (Molecular Devices) is added to stop the reaction. Change in RP7030's FP is determined by a FP reader (Analyst HT, LJL BioSystems).

Sequence of IRAK4 (Q9NWZ3 whole entry): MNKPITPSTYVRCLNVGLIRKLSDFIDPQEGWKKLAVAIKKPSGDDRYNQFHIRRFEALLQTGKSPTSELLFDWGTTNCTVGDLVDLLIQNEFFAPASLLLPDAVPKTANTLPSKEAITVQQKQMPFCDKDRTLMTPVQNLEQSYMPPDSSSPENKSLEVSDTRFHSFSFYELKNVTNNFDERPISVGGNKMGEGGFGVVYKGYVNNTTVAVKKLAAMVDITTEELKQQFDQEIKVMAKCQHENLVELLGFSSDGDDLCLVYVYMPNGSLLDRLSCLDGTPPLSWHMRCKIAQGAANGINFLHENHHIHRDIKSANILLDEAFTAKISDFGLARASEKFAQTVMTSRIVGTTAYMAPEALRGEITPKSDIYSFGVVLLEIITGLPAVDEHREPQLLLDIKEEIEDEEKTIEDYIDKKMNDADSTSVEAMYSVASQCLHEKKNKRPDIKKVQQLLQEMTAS

SMILES	IC50 [nM]
CN(C)C1CCC(Nc2ncnc3ccc(-c4ccccc4)cc23)CC1 (single isomer, unassigned) [Example 1-2, cis or trans-N,N-dimethyl-N′-(6-phenylquinazolin-4-yl)cyclohexane-1,4-diamine]	3160
CN(C)C1CCC(Nc2ncnc3ccc(-c4ccncc4)cc23)CC1 (single isomer, unassigned) [Example 1-3, cis or trans-N,N-dimethyl-N′-[6-(pyridin-4-yl)quinazolin-4-yl]cyclohexane-1,4-diamine]	2290
CN(C)C1CCC(Nc2ncnc3ccc(-c4cccnc4)cc23)CC1 (single isomer, unassigned) [Example 1-4, cis or trans-N,N-dimethyl-N′-[6-(pyridin-3-yl)quinazolin-4-yl]cyclohexane-1,4-diamine]	1610
CN(C)C1CCC(Nc2ncnc3ccc(-c4ccccc4)cc23)CC1 (single isomer, unassigned) [Example 1-5, cis or trans-N,N-dimethyl-N′-(6-phenylquinazolin-4-yl)cyclohexane-1,4-diamine]	19
CN(C)C1CCC(Nc2ncnc3ccc(-c4ccncc4)cc23)CC1 (single isomer, unassigned) [Example 1-6, cis or trans-N,N-dimethyl-N′-[6-(pyridin-4-yl)quinazolin-4-yl]cyclohexane-1,4-diamine]	11
CN(C)C1CCC(Nc2ncnc3ccc(-c4cccnc4)cc23)CC1 (single isomer, unassigned) [Example 1-7, cis or trans-N,N-dimethyl-N′-[6-(pyridin-3-yl)quinazolin-4-yl]cyclohexane-1,4-diamine]	13
Cc1cc(-c2ccc3ncnc(N[C@H]4CC[C@H](N(C)C)CC4)c3c2)cnn1 [Example 1-1, Trans-N,N-dimethyl-N′-[6-(6-methylpyridazin-4-yl)quinazolin-4-yl]cyclohexane-1,4-diamine]	27
COc1cc(-c2ccc3ncnc(N[C@H]4CC[C@H](N(C)C)CC4)c3c2)ccn1 [Example 1-8, trans-N′-[6-(2-methoxypyridin-4-yl)quinazolin-4-yl]-N,N-dimethylcyclohexane-1,4-diamine]	25
Cn1cc(-c2ccc3ncnc(N[C@H]4CC[C@H](N(C)C)CC4)c3c2)cn1 [Example 1-9, trans-N,N-dimethyl-N′-[6-(1-methyl-1H-pyrazol-4-yl)quinazolin-4-yl]cyclohexane-1,4-diamine]	5
CN(C)C1CCC(Nc2ncnc3ccc(-c4cn[nH]c4)cc23)CC1 (stereo not drawn) [Example 1-10, cis or trans-N,N-dimethyl-N′-[6-(1H-pyrazol-4-yl)quinazolin-4-yl]cyclohexane-1,4-diamine]	1
CN(C)C1CCC(Nc2ncnc3ccc(-c4ccc(N)nc4)cc23)CC1 (stereo not drawn) [Example 1-11, cis or trans-N′-[6-(6-aminopyridin-3-yl)quinazolin-4-yl]-N,N-dimethylcyclohexane-1,4-diamine]	36
CN(C)[C@H]1CC[C@H](Nc2ncnc3ccc(-c4cc[nH]n4)cc23)CC1 [Example 1-12, trans-N,N-dimethyl-N′-[6-(1H-pyrazol-3-yl)quinazolin-4-yl]cyclohexane-1,4-diamine]	17
CNc1ncc(-c2ccc3ncnc(N[C@H]4CC[C@H](N(C)C)CC4)c3c2)cn1 [Example 1-13, trans-N,N-dimethyl-N′-{6-[2-(methylamino)pyrimidin-5-yl]quinazolin-4-yl}cyclohexane-1,4-diamine]	28
CCOC(C)n1cc(-c2ccc3ncnc(N[C@H]4CC[C@H](N(C)C)CC4)c3c2)cn1 (stereo partly drawn) [Example 1-14, trans-N′-{6-[1-(1-ethoxyethyl)-1H-pyrazol-4-yl]quinazolin-4-yl}-N,N-dimethylcyclohexane-1,4-diamine]	1360
CN(C)[C@H]1CC[C@H](Nc2ncnc3ccc(-c4cnn(CCN5CCOCC5)c4)cc23)CC1 [Example 1-15, trans-N,N-dimethyl-N′-(6-{1-[2-(morpholin-4-yl)ethyl]-1H-pyrazol-4-yl}quinazolin-4-yl)cyclohexane-1,4-diamine]	1320
CN(C)[C@H]1CC[C@H](Nc2ncnc3ccc(-c4cnn(C5CCCCO5)c4)cc23)CC1 (stereo partly drawn) [Example 1-16, trans-N,N-dimethyl-N′-{6-[1-(tetrahydro-2H-pyran-2-yl)-1H-pyrazol-4-yl]quinazolin-4-yl}cyclohexane-1,4-diamine]	217
CN(C)[C@H]1CC[C@H](Nc2ncnc3ccc(-c4cnn(Cc5ccccn5)c4)cc23)CC1 [Example 1-17, trans-N,N-dimethyl-N′-{6-[1-(pyridin-2-ylmethyl)-1H-pyrazol-4-yl]quinazolin-4-yl}cyclohexane-1,4-diamine]	372
CCn1cc(-c2ccc3ncnc(N[C@H]4CC[C@H](N(C)C)CC4)c3c2)cn1 [Example 1-18, trans-N′-[6-(1-ethyl-1H-pyrazol-4-yl)quinazolin-4-yl]-N,N-dimethylcyclohexane-1,4-diamine]	92

SMILES	IC50 [nM]
CN(C)[C@H]1CC[C@H](Nc2ncnc3ccc(-c4cnn(Cc5ccncc5)c4)cc23)CC1 [Example 1-19, trans-N,N-dimethyl-N′-{6-[1-(pyridin-4-ylmethyl)-1H-pyrazol-4-yl]quinazolin-4-yl}cyclohexane-1,4-diamine]	358
CN(C)[C@H]1CC[C@H](Nc2ncnc3ccc(-c4ccncc4C#N)cc23)CC1 [Example 1-20, 4-(4-{[trans-4-(dimethylamino)cyclohexyl]amino}quinazolin-6-yl)pyridine-3-carbonitrile]	85
Cc1cnccc1-c1ccc2ncnc(N[C@H]3CC[C@H](N(C)C)CC3)c2c1 [Example 1-21, trans-N,N-dimethyl-N′-[6-(3-methylpyridin-4-yl)quinazolin-4-yl]cyclohexane-1,4-diamine]	155
CN(C)[C@H]1CC[C@H](Nc2ncnc3ccc(-c4cnccc4C#N)cc23)CC1 [Example 1-22, 3-(4-{[trans-4-(dimethylamino)cyclohexyl]amino}quinazolin-6-yl)pyridine-4-carbonitrile]	54
CN(C)[C@H]1CC[C@H](Nc2ncnc3ccc(-c4cncc(N5CCOCC5)c4)cc23)CC1 [Example 1-23, trans-N,N-dimethyl-N′-{6-[5-(morpholin-4-yl)pyridin-3-yl]quinazolin-4-yl}cyclohexane-1,4-diamine]	498
Cc1noc(C)c1-c1ccc2ncnc(N[C@H]3CC[C@H](N(C)C)CC3)c2c1 [Example 1-24, trans-N′-[6-(3,5-dimethylisoxazol-4-yl)quinazolin-4-yl]-N,N-dimethylcyclohexane-1,4-diamine]	333
CN(C)[C@H]1CC[C@H](Nc2ncnc3ccc(-c4cncnc4)cc23)CC1 [Example 1-25, trans-N,N-dimethyl-N′-[6-(pyrimidin-5-yl)quinazolin-4-yl]cyclohexane-1,4-diamine]	3
Cc1onc(-c2ccccc2)c1-c1ccc2ncnc(N[C@H]3CC[C@H](N(C)C)CC3)c2c1 [Example 1-26, trans-N,N-dimethyl-N′-[6-(5-methyl-3-phenylisoxazol-4-yl)quinazolin-4-yl]cyclohexane-1,4-diamine]	698
CN(C)[C@H]1CC[C@H](Nc2ncnc3ccc(-c4ccc(C#N)nc4)cc23)CC1 [Example 1-27, 5-(4-{[trans-4-(dimethylamino)cyclohexyl]amino}quinazolin-6-yl)pyridine-2-carbonitrile]	43
CN(C)[C@H]1CC[C@H](Nc2ncnc3ccc(-c4ccc(O)nc4)cc23)CC1 [Example 1-28, 5-(4-{[trans-4-(dimethylamino)cyclohexyl]amino}quinazolin-6-yl)pyridin-2-ol]	7
CN(C)[C@H]1CC[C@H](Nc2ncnc3ccc(-c4cnc(N)nc4)cc23)CC1 [Example 1-29, trans-N′-[6-(2-aminopyrimidin-5-yl)quinazolin-4-yl]-N,N-dimethylcyclohexane-1,4-diamine]	19
Cc1ccc(-c2ccc3ncnc(N[C@H]4CC[C@H](N(C)C)CC4)c3c2)cn1 [Example 1-30, trans-N,N-dimethyl-N′-[6-(6-methylpyridin-3-yl)quinazolin-4-yl]cyclohexane-1,4-diamine]	42
COC(=O)c1cncc(-c2ccc3ncnc(N[C@H]4CC[C@H](N(C)C)CC4)c3c2)c1 [Example 1-31, methyl 5-(4-{[trans-4-(dimethylamino)cyclohexyl]amino}quinazolin-6-yl)pyridine-3-carboxylate]	45
CN(C)[C@H]1CC[C@H](Nc2ncnc3ccc(-c4cnoc4)cc23)CC1 [Example 1-32, trans-N′-[6-(isoxazol-4-yl)quinazolin-4yl]-N,N-dimethylcyclohexane-1,4-diamine]	9
CN(C)[C@H]1CC[C@H](Nc2ncnc3ccc(-c4cnc(O)nc4)cc23)CC1 [Example 1-33, 5-(4-{[trans-4-(dimethylamino)cyclohexyl]amino}quinazolin-6-yl)pyrimidin-2-ol]	9
CN(C)[C@H]1CC[C@H](Nc2ncnc3ccc(-c4ccncc4F)cc23)CC1 [Example 1-34, trans-N′-[6-(3-fluoropyridin-4-yl)quinazolin-4-yl]-N,N-dimethylcyclohexane-1,4-diamine]	11
COc1ccncc1-c1ccc2ncnc(N[C@H]3CC[C@H](N(C)C)CC3)c2c1 [Example 1-35, trans-N′-[6-(4-methoxypyridin-3-yl)quinazolin-4-yl]-N,N-dimethylcyclohexane-1,4-diamine]	394
